Patent US20050112573A1, “Method of detecting toxic substance” (priority 2001, published 2005)

Test system: yeast genes (level of expressed mRNA)
Experiment: DNA chip analysis of expressed mRNA of yeast genes after 2 h culture with a toxic chemical substance
Type: cell-based, Saccharomyces cerevisiae S288C
Protocol: Yeast (Saccharomyces cerevtisiae S288C (α SUC2mal mel gap2 CUP1)) were cultured at 25° C. on YPD medium (yeast extract 1%, polypepton 2%, glucose 2%). One of toxic chemical substances was added to the cell at logarithmic growth phase, and the cell was further cultured for two hours. Cell was cultured without any chemical substance in the same condition, and was used as control. Concentrations of the chemical substances were defined to inhibit the growth of the yeast but not lead to death.
After the completion of cultivation, the culture was centrifuged to collect the cells. To the cells, sodium acetate buffer (50 mM sodium acetate, 10 mM EDTA, 1% SDS) was added, and the mixture was shaken at 65° C. for five minutes, followed by returning to room temperature, and obtaining the supernatant, which procedure was repeated two times. To the supernatant, ½ amount of a solution of phenol/chloroform was added, and the mixture was centrifuged to give a supernatant, which was added with an equal amount of chloroform, and the mixture was centrifuged to give a supernatant. To the supernatant, an equal amount of isopropanol containing 0.3 M sodium acetate was added, and the mixture was allowed to stand at room temperature for 30 minutes, after which the mixture was centrifuged to give a sediment of the whole RNAs. Seventy % ethanol was added to the sediment, and the mixture was again centrifuged to give a sediment, which was then dried and dissolved in water. mRNA was isolated from the whole RNAs as followings. In view of the fact that a poly A chain is attached to the 3′ terminus of mRNA, a polynucleotide having a poly T structure which was immobilized on the surface of latex beads was used to trap the mRNA, and then the mRNA was washed and eluted with spine column (Oligotex-dT30<Super>mRNA Purification Kit, Takara). Reverse transcription of the mRNA was conducted with a reverse transcriptase (Super Script II Reverse Transcriptase; catalogue No. 18064-014, GibcoBRL) using fluorescence-labeled nucleotides to give cDNAs that were introduced with Cy3-dUTP or Cy5-dUTP during the reverse transcription.
The labeled cDNAs were dissolved in TE buffer (10 mM Tris-HCl/1 mM EDTA, pH8.0), and the solution was dropped on the DNA chip containing the whole genes of yeast (DNA Chip Research Inc. Japan) so that the cDNAs were hybridized on the DNA chip at 65° C. for over 12 hours. The fluoresces intensity of the DNA chip was read with a scanner, and the ratio relative to the fluorescence intensity resulting from the absence of chemical substance was estimated as the following, which is shown in Tables 1 to 9: [formula]
In the Tables, “Intensity” indicated in the rightmost column is a value of the level of expressed mRNA of each gene in control cells as divided by the average level of the expressions of the whole genes.

γ-hexachlorocyclohexane [(7)]
The level of expressed mRNA in the presence of chemical substance/The level of expressed mRNA in the absence of chemical substance (yeast gene YKL096W): 0.2 | The level of expressed mRNA in the presence of chemical substance/The level of expressed mRNA in the absence of chemical substance (yeast gene YKL139W): 2.6 | The level of expressed mRNA in the presence of chemical substance/ (yeast gene YKL151C, ratio to control without chemical substance, 2 h culture): 5.6 | The level of expressed mRNA in the presence of chemical substance/ (yeast gene YKL153W, ratio to control without chemical substance, 2 h culture): 1.1 | The level of expressed mRNA in the presence of chemical substance/The level of expressed mRNA in the absence of chemical substance (yeast gene YKL165C): 2.1 | The level of expressed mRNA in the presence of chemical substance/The level of expressed mRNA in the absence of chemical substance (yeast gene YKL193C): 2.1 | The level of expressed mRNA in the presence of chemical substance/ (yeast gene YKL195W, ratio to control without chemical substance, 2 h culture): 2.1 | The level of expressed mRNA in the presence of chemical substance/in the absence of chemical substance (yeast gene YKR009C): 1.0 | The level of expressed mRNA in the presence of chemical substance/The level of expressed mRNA in the absence of chemical substance (yeast gene YKR014C): 1.7 | The level of expressed mRNA in the presence of chemical substance/ (yeast gene YKR091W, ratio to control without chemical): 1.3 | The level of expressed mRNA in the presence of chemical substance/ (yeast gene YLR054C, ratio to control without chemical substance, 2 h culture): 1.1 | The level of expressed mRNA in the presence of chemical substance/The level of expressed mRNA in the absence of chemical substance (yeast gene YLR120C): 1.5 | The level of expressed mRNA in the presence of chemical substance/The level of expressed mRNA in the absence of chemical substance (yeast gene YLR136C): 3.9 | The level of expressed mRNA in the presence of chemical substance/ (yeast gene YLR149C, ratio to control without chemical substance, 2 h culture): 1.6 | The level of expressed mRNA in the presence of chemical substance/ (yeast gene YLR152C, ratio to control without chemical substance, 2 h culture): 1.4 | The level of expressed mRNA in the presence of chemical substance/The level of expressed mRNA in the absence of chemical substance (yeast gene YLR178C): 3.3 | The level of expressed mRNA in the presence of chemical substance/ (yeast gene YLR194C, ratio to control without chemical): 1.0 | The level of expressed mRNA in the presence of chemical substance/The level of expressed mRNA in the absence of chemical substance (yeast gene YLR250W): 1.9 | The level of expressed mRNA in the presence of chemical substance/ (yeast gene YLR324W, ratio to control without chemical substance, 2 h culture): 1.0 | The level of expressed mRNA in the presence of chemical substance/The level of expressed mRNA in the absence of chemical substance (yeast gene YLR327C): 5.7 | The level of expressed mRNA in the presence of chemical substance/ (yeast gene YLR350W, ratio to control without chemical substance, 2 h culture): 1.2 | The level of expressed mRNA in the presence of chemical substance/in the absence of chemical substance (yeast gene YLR351C): 1.4 | The level of expressed mRNA in the presence of chemical substance/The level of expressed mRNA in the absence of chemical substance (yeast gene YLR356W): 1.1 | The level of expressed mRNA in the presence of chemical substance/The level of expressed mRNA in the absence of chemical substance (yeast gene YLR362W): 1.9 | The level of expressed mRNA in the presence of chemical substance/in the absence of chemical substance (yeast gene YLR375W): 0.9 | The level of expressed mRNA in the presence of chemical substance/ (yeast gene YLR387C, ratio to control without chemical substance, 2 h culture): 1.1 | The level of expressed mRNA in the presence of chemical substance/The level of expressed mRNA in the absence of chemical substance (yeast gene YLR391W): 0.7 | The level of expressed mRNA in the presence of chemical substance/The level of expressed mRNA in the absence of chemical substance (yeast gene YLR429W): 1.3 | The level of expressed mRNA in the presence of chemical substance/ (yeast gene YLR460C, ratio to control without chemical substance, 2 h culture): 1.1 | The level of expressed mRNA in the presence of chemical substance/ (yeast gene YML117W, ratio to control without chemical substance, 2 h culture): 0.7 | The level of expressed mRNA in the presence of chemical substance/The level of expressed mRNA in the absence of chemical substance (yeast gene YMR004W): 1.2 | The level of expressed mRNA in the presence of chemical substance/ (yeast gene YMR009W, ratio to control without chemical substance, 2 h culture): 1.9 | The level of expressed mRNA in the presence of chemical substance/ (yeast gene YMR067C, ratio to control without chemical substance, 2 h culture): 1.2 | The level of expressed mRNA in the presence of chemical substance/ (yeast gene YMR090W, ratio to control without chemical substance, 2 h culture): 2.7 | The level of expressed mRNA in the presence of chemical substance/The level of expressed mRNA in the absence of chemical substance (yeast gene YMR094W): 0.8 | The level of expressed mRNA in the presence of chemical substance/ (yeast gene YMR095C, ratio to control without chemical): 1.2 | The level of expressed mRNA in the presence of chemical substance/ (yeast gene YMR097C, ratio to control without chemical substance, 2 h culture): 1.5 | The level of expressed mRNA in the presence of chemical substance/ (yeast gene YMR102C, ratio to control without chemical substance, 2 h culture): 1.8 | The level of expressed mRNA in the presence of chemical substance/The level of expressed mRNA in the absence of chemical substance (yeast gene YMR104C): 1.5 | The level of expressed mRNA in the presence of chemical substance/ (yeast gene YMR107W, ratio to control without chemical substance, 2 h culture): 1.2 | The level of expressed mRNA in the presence of chemical substance/ (yeast gene YMR180C, ratio to control without chemical substance, 2 h culture): 1.7 | The level of expressed mRNA in the presence of chemical substance/ (yeast gene YMR184W, ratio to control without chemical substance, 2 h culture): 1.6 | The level of expressed mRNA in the presence of chemical substance/ (yeast gene YMR191W, ratio to control without chemical substance, 2 h culture): 2.0 | The level of expressed mRNA in the presence of chemical substance/The level of expressed mRNA in the absence of chemical substance (yeast gene YMR226C): 1.8 | The level of expressed mRNA in the presence of chemical substance/in the absence of chemical substance (yeast gene YMR267W): 1.2 | The level of expressed mRNA in the presence of chemical substance/The level of expressed mRNA in the absence of chemical substance (yeast gene YMR275C): 0.8 | The level of expressed mRNA in the presence of chemical substance/The level of expressed mRNA in the absence of chemical substance (yeast gene YMR276W): 1.1 | The level of expressed mRNA in the presence of chemical substance/in the absence of chemical substance (yeast gene YMR278W): 1.8 | The level of expressed mRNA in the presence of chemical substance/in the absence of chemical substance (yeast gene YMR293C): 1.2 | The level of expressed mRNA in the presence of chemical substance/ (yeast gene YMR295C, ratio to control without chemical substance, 2 h culture): 1.3 | The level of expressed mRNA in the presence of chemical substance/The level of expressed mRNA in the absence of chemical substance (yeast gene YMR314W): 1.1 | The level of expressed mRNA in the presence of chemical substance/ (yeast gene YMR316W, ratio to control without chemical substance, 2 h culture): 2.0 | The level of expressed mRNA in the presence of chemical substance/The level of expressed mRNA in the absence of chemical substance (yeast gene YNL006W): 1.6 | The level of expressed mRNA in the presence of chemical substance/The level of expressed mRNA in the absence of chemical substance (yeast gene YNL007C): 1.2 | The level of expressed mRNA in the presence of chemical substance/ (yeast gene YNL044W, ratio to control without chemical substance, 2 h culture): 0.9
